Assay results from the OPERA property sets (Mansouri et al. 2018).

Conditions: for log10 BCF / log10 biotransformation half-life (days): fish

Row | SMILES | boiling point [°C] | melting point [°C] | other results
1 | O=C(O)CCCCCl | 230 | 18 | 
2 | CCN1CCCC(N)C1 (configuration not stated) | 155 |  | 
3 | Cc1ncc2n1-c1ccc(Cl)cc1C(c1ccccc1F)=NC2 |  | 159 | 
4 | CC(=O)CC(=O)Nc1ccc(C)cc1C |  | 90 | ready biodegradability: not readily biodegradable
5 | CC1=C(c2ccccc2)C(=O)N(C(C)(C)c2cc(Cl)cc(Cl)c2)CO1 |  | 150 | 
6 | C[C@@H]1O[C@@H](Oc2c(-c3ccc(O)c(O)c3)oc3cc(O)cc(O)c3c2=O)[C@H](O)[C@H](O)[C@H]1O |  | 170 | 
7 | COc1cc(Cc2cnc(N)nc2N)cc(OC)c1Br |  | 226 | 
8 | C[N+]1(C)CCCCC1.[Cl-] |  | 223 | 
9 | N#CCCCCCCC#N |  | -3.5 | 
10 | C=Cc1ccc(N)cc1 |  | 23.5 | 
11 | C/C=C\C | 2.25 | -122 | log10 Henry constant (atm·m³/mol): -0.643
12 | C/C=C\C(C)(C)C | 80.4 | -135 | 
13 | CC1CCS1 (configuration not stated) | 107 |  | 
14 | NCC(F)(F)F | 37.5 |  | 
15 | CC(=O)OO | 110 | -0.2 | log10 Henry constant (atm·m³/mol): -5.67; log10 vapour pressure (mmHg): 1.16
16 | CC(C)CI | 121 | -93 | log10 vapour pressure (mmHg): 1.19
17 | O=C(O)c1cc(Cl)c(Cl)c(Cl)c1Cl |  | 194 | 
18 | Nc1ccc([N+](=O)[O-])cc1[N+](=O)[O-] | 334 | 180 | ready biodegradability: not readily biodegradable
19 | CCc1ccnc(C)c1 | 179 |  | 
20 | FC(Cl)C(F)(F)Br (configuration not stated) | 52.5 |  | 
21 | CCC(C)(O)CCC(C)C (configuration not stated) | 173 |  | 
22 | Cc1cccnn1 | 214 | 184 | 
23 | CCCCCCCCC(=O)N(CCO)CCO |  |  | ready biodegradability: readily biodegradable
24 | c1ccc2c(c1)nnc1ccccc12 |  | 158 | 
25 | CCCNC(=O)NCCC | 255 | 105 | 

Row | SMILES | boiling point [°C] | melting point [°C] | other results
26 | FC(C(F)(F)F)C(F)(F)F | -17.3 | -127 | log10 vapour pressure (mmHg): 3.53
27 | O=C1CCCCC1Cl (configuration not stated) |  | 23 | 
28 | CC(=O)C1CC1 | 111 | -68.3 | log10 Henry constant (atm·m³/mol): -4.99
29 | CCC(=O)OC(=O)CC | 170 | -45 | log10 vapour pressure (mmHg): 0.134; ready biodegradability: readily biodegradable
30 | CC(=O)Nc1cccc(Cl)c1 |  | 80 | log10 Koc (L/kg): 1.86
31 | Brc1ccc(Oc2ccc(Br)c(Br)c2)c(Br)c1 |  |  | log10 BCF: 6.05
32 | CCCCCCCS | 177 | -43 | log10 vapour pressure (mmHg): 0.116
33 | CCCCC(C)=O | 128 | -55.5 | log10 Koa: 3.68; log10 vapour pressure (mmHg): 1.06; ready biodegradability: not readily biodegradable
34 | COC(=O)c1ccccc1O[C@@H]1O[C@H](CO[C@@H]2OC[C@@H](O)[C@H](O)[C@H]2O)[C@@H](O)[C@H](O)[C@H]1O |  | 180 | 
35 | CCc1cn([C@H]2C[C@H](O)[C@@H](CO)O2)c(=O)[nH]c1=O |  | 152 | 
36 | CC(CC(=O)O)CC(=O)O |  | 87 | 
37 | CC1=C2[C@H]3OC(=O)[C@@H](C)[C@@H]3CC[C@@]2(C)C=CC1=O |  | 175 | 
38 | O[C@@H]1CCc2ccccc21 | 220 | 54.8 | 
39 | Cc1cc(C)n(-c2ccccc2)n1 | 273 |  | 
40 | COc1cc(Cl)c(Cl)cc1Cl | 254 | 77.5 | log10 BCF: 2.81
41 | CC1(C)CCCC(O)C1 (configuration not stated) | 185 | 11.5 | 
42 | CO[Si](C)(OC)OC | 102 |  | 
43 | CCCCCCCCCCCCCCCCCCCBr |  |  | log10 vapour pressure (mmHg): -5.65
44 | C[C@](N)(Cc1ccc(O)cc1)C(=O)O |  | 312 | 
45 | C#CCOC(=O)/C=C(C)/C=C/CC(C)CCCC(C)C (configuration not stated) |  |  | log10 vapour pressure (mmHg): -5.14
46 | FC(F)(Cl)CCl | 46.8 | -101 | log10 vapour pressure (mmHg): 2.53
47 | CCC(C)c1ccc(O)cc1 (configuration not stated) | 241 | 61.5 | log10 vapour pressure (mmHg): -1.43; ready biodegradability: not readily biodegradable; log10 BCF: 1.31; log10 biotransformation half-life (days): -0.84
48 | CCOc1cccc(F)c1 | 172 | -27.5 | 
49 | COC1=CC(=O)C[C@@H](C)[C@]12Oc1c(Cl)c(OC)cc(OC)c1C2=O |  | 220 | 
50 | CCCSSCCC | 194 | -85.6 | log10 vapour pressure (mmHg): -0.291

Row | SMILES | boiling point [°C] | melting point [°C] | other results
51 | COc1cc(N)c2c(c1N)C(=O)c1ccccc1C2=O |  | 242 | 
52 | ClCc1cccc(Cl)c1 | 216 |  | 
53 | Cc1cc(O)cc(O)c1C | 284 | 136 | 
54 | CCC(C)n1c(=O)[nH]c(C)c(Br)c1=O (configuration not stated) |  | 158 | log10 Koc (L/kg): 1.6; log10 vapour pressure (mmHg): -6.51; log10 BCF: 0.51; log10 biotransformation half-life (days): -1.33
55 | C=CC(Cl)Cl | 84.4 |  | log10 vapour pressure (mmHg): 1.85
56 | Cc1nc2cc(Cl)ccc2s1 |  | 69 | 
57 | CCCCCCC(O)CCCCC (configuration not stated) | 225 | 30 | 
58 | O=[N+]([O-])c1c(Cl)cccc1Cl |  | 72.5 | 
59 | Cc1cccc2cc3ccc4ccccc4c3cc12 |  | 118 | 
60 | CC(=O)CC(=O)C(=O)O |  | 99.5 | 
61 | C[C@]12C=C(C=O)C(=O)C=C1CC[C@@H]1[C@@H]2[C@H](O)C[C@@]2(C)[C@H]1CC[C@]2(C)O |  | 210 | 
62 | Cc1c(Cl)c(Cl)c(Cl)c(Cl)c1Cl | 301 | 225 | log10 Henry constant (atm·m³/mol): -3.11; log10 BCF: 3.83
63 | Nc1ccccc1Br | 229 | 32 | 
64 | CCOC(=O)COC(=O)c1cc(Oc2ccc(C(F)(F)F)cc2Cl)ccc1[N+](=O)[O-] |  | 65 | 
65 | CCCCN(C)C(=O)Nc1ccc(Cl)c(Cl)c1 |  | 102 | log10 Koc (L/kg): 3.4; ready biodegradability: not readily biodegradable
66 | Cc1ccc(O)cc1 | 202 | 35.5 | log10 Henry constant (atm·m³/mol): -6; log10 Koc (L/kg): 2.7; log10 vapour pressure (mmHg): -0.959; ready biodegradability: readily biodegradable
67 | CCC(N)Cc1c[nH]c2ccccc12 (configuration not stated) |  | 97 | 
68 | CCOP(=S)(OCC)Oc1cc(C)nc(N(CC)CC)n1 |  | 15 | log10 Koc (L/kg): 2.48; log10 vapour pressure (mmHg): -3.54
69 | CCCCC(CC)CC | 143 | -115 | 
70 | CC(C)C=CC(=O)O | 217 | 35 | 
71 | CCOC(=O)c1ccco1 | 197 | 34.5 | log10 vapour pressure (mmHg): -0.432
72 | CCOC(=O)C(C#N)=Cc1ccccc1 |  | 51 | 
73 | CCn1cc(C(=O)O)c(=O)c2cnc(N3CCNCC3)nc21 |  | 254 | 
74 | COC(=O)c1ccco1 | 181 |  | 
75 | Clc1cccc(Cl)c1Oc1ccccc1 |  |  | log10 vapour pressure (mmHg): -2.89

Row | SMILES | boiling point [°C] | melting point [°C] | other results
76 | COc1cc(CCn2cccc2C(=O)O)cc(OC)c1OC |  | 132 | 
77 | CCN(CC)C(N)=O |  | 75 | 
78 | NC(=O)C#CC#CC#CCO |  | 140 | 
79 | Cc1ccccc1C=O | 200 |  | 
80 | Clc1cc(-c2c(Cl)c(Cl)cc(Cl)c2Cl)c(Cl)c(Cl)c1Cl |  |  | log10 Henry constant (atm·m³/mol): -5; log10 biotransformation half-life (days): 2.47
81 | CCC(CO)(CO)CO |  |  | ready biodegradability: not readily biodegradable
82 | CC(C)CC(O)C(C)C (configuration not stated) | 158 |  | 
83 | CCC(Oc1c(I)cc(I)cc1I)C(=O)O (configuration not stated) |  | 124 | 
84 | CCCCCCCCCN | 202 | -1 | log10 vapour pressure (mmHg): -0.556
85 | COCCOc1c(OC)cc(Cc2cnc(N)nc2N)cc1OC |  | 154 | 
86 | O=C(O)CS |  | -16.5 | log10 vapour pressure (mmHg): -1.06; ready biodegradability: readily biodegradable
87 | Cc1ccccc1C(C)C | 178 | -71.5 | log10 vapour pressure (mmHg): 0.176; ready biodegradability: not readily biodegradable
88 | CC(=S)Nc1ccccc1 |  | 77.5 | 
89 | C1CN2CCN1CC2 | 174 | 159 | log10 vapour pressure (mmHg): -0.13; ready biodegradability: not readily biodegradable
90 | CN(C)c1ccc(C(=O)c2ccc(N(C)C)cc2)cc1 |  | 179 | log10 Koc (L/kg): 2.21; ready biodegradability: not readily biodegradable; log10 BCF: 1.45; log10 biotransformation half-life (days): -0.77
91 | CCCCC(C)C(C)(C)C (configuration not stated) | 158 |  | 
92 | CCCCCC(=O)CC | 168 |  | log10 vapour pressure (mmHg): 0.301
93 | CC1(C)[C@@H](O)CC[C@]2(C)[C@H]3C(=O)C=C4[C@@H]5C[C@@](C)(C(=O)O)CC[C@]5(C)CC[C@@]4(C)[C@]3(C)CC[C@@H]12 |  | 296 | 
94 | NC(N)=O.O=P(O)(O)O |  | 120 | 
95 | CC[C@H]1CC[C@H]2[C@@H]3CC[C@@H]4CCCC[C@]4(C)[C@H]3CC[C@]12C |  | 84 | 
96 | Cc1cc2ccccc2cc1C | 268 | 105 | log10 Henry constant (atm·m³/mol): -3.04; log10 biodegradation half-life (days): 1.18; log10 vapour pressure (mmHg): -2.96; ready biodegradability: readily biodegradable; log10 biotransformation half-life (days): 0.03
97 | Brc1ccoc1 | 103 |  | 
98 | CCCCCCCCCCCCCCO | 289 | 39.5 | log10 vapour pressure (mmHg): -3.96; ready biodegradability: readily biodegradable
99 | Brc1cc(Br)c(Oc2ccc(Br)c(Br)c2)c(Br)c1 |  |  | log10 BCF: 6.29
100 | N#CCC(=O)c1ccccc1 |  | 80.5 | 

Row | SMILES | boiling point [°C] | melting point [°C] | other results
101 | CC(C)c1cc(C(C)C)cc(C(C)C)c1 | 238 | -7.4 | 
102 | CC1=C(C)CCC1 | 106 | -90.4 | 
103 | O=C(O)Cc1c(F)c(F)c(F)c(F)c1F |  | 109 | 
104 | Cc1cc(Cl)c(O)c(Cl)c1 | 231 | 39 | 
105 | c1ccc2c(c1)c1cccc3ccc4cccc2c4c31 |  | 178 | log10 biodegradation half-life (days): 2.56; log10 vapour pressure (mmHg): -8.24
106 | COC(=O)C=Cc1ccccc1 | 260 | 36 | log10 vapour pressure (mmHg): -1.46
107 | NC(=O)c1cccc2ccccc12 |  | 206 | 
108 | CC(O)CN(CCN(CC(C)O)CC(C)O)CC(C)O (configuration not stated) |  |  | ready biodegradability: not readily biodegradable
109 | Cc1cc(C)c(Cl)c(O)c1Cl |  | 87.5 | 
110 | Cc1ccc(C)c(O)c1C | 226 | 58 | log10 vapour pressure (mmHg): -1.46; ready biodegradability: not readily biodegradable
111 | O=C(Nc1ccccc1)Nc1ccccc1 | 262 | 239 | log10 vapour pressure (mmHg): -5.12
112 | NS(=O)(=O)c1cc2c(cc1Cl)N=C(CSCc1ccccc1)NS2(=O)=O |  | 232 | 
113 | O=C(CCl)CCl | 173 | 45 | log10 vapour pressure (mmHg): -0.202
114 | CCCCCCCCc1ccc(Nc2ccc(CCCCCCCC)cc2)cc1 |  |  | ready biodegradability: not readily biodegradable
115 | O=C(c1ccccc1)c1ccccn1 | 317 | 42 | ready biodegradability: readily biodegradable
116 | CS(=O)(=O)O.Cc1ccc(N(CC2=NCCN2)c2cccc(O)c2)cc1 |  | 181 | 
117 | CN(C)c1ccc(C#N)cc1 | 318 | 74 | 
118 | CC(=O)NC(=O)COC(=O)c1ccccc1 |  | 104 | 
119 | Clc1ccc(Oc2ccc(Cl)c(Cl)c2)cc1 |  |  | log10 vapour pressure (mmHg): -3.98
120 | CC(=O)c1ccc(Br)cc1 | 257 | 50.5 | 
121 | CCNc1nc(NC(C)CC)nc(OC)n1 (configuration not stated) |  | 87 | log10 Koc (L/kg): 2.78; log10 vapour pressure (mmHg): -5.14
